Patent publication US20050020612A1, “4-Aryliquinazolines and the use thereof as nhe-3 inhibitors” (priority 2001, published 2005)
Structures can show the parent of a compound that is named as a salt.

melting point [°C]	Compound
289 to 290	Cc1ccc(-c2nc(NN=C(N)N)nc3ccc(Cl)cc23)cc1 (as salt: HCl) [Example 10]
241	NC(N)=Nc1nc(-c2cccc(N3CCNCC3)c2)c2cc(Cl)ccc2n1 (as salt: HCl) [Example 225]
